Holding throughout (assay type): biochemical
Assay [1] concerns the target T1, hAPN (recombinant human alanine aminopeptidase, EC 3.4.11.2) (Homo sapiens, UniProt P15144).
T1 construct: gene ANPEP; commercial recombinant enzyme (R&D Systems), lyophilized powder
Kind of assay: fluorogenic assay, Ala-AMC hydrolysis; Ki by Lineweaver-Burk, Dixon, Cheng-Prusoff. An excerpt: fluorogenic assay, Ala-AMC hydrolysis; Ki by Lineweaver-Burk, Dixon, Cheng-Prusoff on hAPN (recombinant human alanine aminopeptidase, EC 3.4.11.2)

Assay [2] concerns the target T2, pAPN (porcine kidney alanine aminopeptidase, EC 3.4.11.2) (Sus scrofa, UniProt P15145).
T2 construct: gene ANPEP; commercial enzyme from porcine kidney (Sigma Aldrich), native purification, lyophilized powder
T2 sequence (P15145 2-963): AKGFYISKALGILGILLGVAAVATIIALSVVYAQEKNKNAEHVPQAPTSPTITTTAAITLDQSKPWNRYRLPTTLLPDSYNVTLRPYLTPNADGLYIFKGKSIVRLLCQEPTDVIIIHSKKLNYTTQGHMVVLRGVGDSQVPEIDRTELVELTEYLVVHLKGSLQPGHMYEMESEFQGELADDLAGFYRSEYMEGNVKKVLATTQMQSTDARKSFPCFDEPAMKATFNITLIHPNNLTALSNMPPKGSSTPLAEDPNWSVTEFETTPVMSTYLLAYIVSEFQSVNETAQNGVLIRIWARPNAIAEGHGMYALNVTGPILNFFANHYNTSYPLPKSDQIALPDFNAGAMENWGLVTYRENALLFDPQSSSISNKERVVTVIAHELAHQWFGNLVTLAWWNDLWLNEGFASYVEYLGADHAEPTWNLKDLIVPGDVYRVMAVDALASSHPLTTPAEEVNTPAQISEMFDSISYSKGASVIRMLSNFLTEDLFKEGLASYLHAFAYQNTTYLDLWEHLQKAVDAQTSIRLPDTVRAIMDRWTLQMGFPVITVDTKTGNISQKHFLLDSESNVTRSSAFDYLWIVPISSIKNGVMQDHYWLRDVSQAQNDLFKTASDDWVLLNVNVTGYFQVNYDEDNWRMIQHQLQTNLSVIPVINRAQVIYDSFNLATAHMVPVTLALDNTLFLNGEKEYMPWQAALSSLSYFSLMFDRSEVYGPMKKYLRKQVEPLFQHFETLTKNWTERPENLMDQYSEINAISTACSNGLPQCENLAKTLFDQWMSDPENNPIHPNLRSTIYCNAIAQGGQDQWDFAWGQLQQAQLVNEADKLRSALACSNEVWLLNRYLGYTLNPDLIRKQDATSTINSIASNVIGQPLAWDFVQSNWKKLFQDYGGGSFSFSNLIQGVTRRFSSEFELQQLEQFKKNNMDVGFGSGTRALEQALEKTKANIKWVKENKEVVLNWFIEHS
Described as above. The note with it: for pAPN Ki (μM): unreliable (value above highest stated concentration, 1 mM). An excerpt: fluorogenic assay, Ala-AMC hydrolysis; Ki by Lineweaver-Burk, Dixon, Cheng-Prusoff on pAPN (porcine kidney alanine aminopeptidase, EC 3.4.11.2)

Assay [3] has as its target T1, hAPN (recombinant human alanine aminopeptidase, EC 3.4.11.2). Kind of assay: fluorogenic assay (AMC release). The note with it: 50 mM Tris-HCl pH 7.00.
Assay [4] deals with T2, pAPN (porcine kidney alanine aminopeptidase, EC 3.4.11.2). Kind of assay: fluorogenic assay (AMC release). The note with it: 50 mM Tris-HCl pH 7.20.
The mark [5] stands for this setting: racemate (hydrochloride), 80 µM Ala-AMC, 50 mM Tris-HCl pH 7.20, 37 °C, 0.66 nM enzyme, 30 min enzyme preincubation in buffer.
Where [6] appears, read: read-out: Inactive (no inhibition up to 1 mM).
[7] abbreviates: racemate (hydrochloride), 80 µM Ala-AMC, 50 mM Tris-HCl pH 7.20, 37 °C.

Where two headings read alike, the source gives them in different places.

T1 sequence (P15144 33-967 limits assumed): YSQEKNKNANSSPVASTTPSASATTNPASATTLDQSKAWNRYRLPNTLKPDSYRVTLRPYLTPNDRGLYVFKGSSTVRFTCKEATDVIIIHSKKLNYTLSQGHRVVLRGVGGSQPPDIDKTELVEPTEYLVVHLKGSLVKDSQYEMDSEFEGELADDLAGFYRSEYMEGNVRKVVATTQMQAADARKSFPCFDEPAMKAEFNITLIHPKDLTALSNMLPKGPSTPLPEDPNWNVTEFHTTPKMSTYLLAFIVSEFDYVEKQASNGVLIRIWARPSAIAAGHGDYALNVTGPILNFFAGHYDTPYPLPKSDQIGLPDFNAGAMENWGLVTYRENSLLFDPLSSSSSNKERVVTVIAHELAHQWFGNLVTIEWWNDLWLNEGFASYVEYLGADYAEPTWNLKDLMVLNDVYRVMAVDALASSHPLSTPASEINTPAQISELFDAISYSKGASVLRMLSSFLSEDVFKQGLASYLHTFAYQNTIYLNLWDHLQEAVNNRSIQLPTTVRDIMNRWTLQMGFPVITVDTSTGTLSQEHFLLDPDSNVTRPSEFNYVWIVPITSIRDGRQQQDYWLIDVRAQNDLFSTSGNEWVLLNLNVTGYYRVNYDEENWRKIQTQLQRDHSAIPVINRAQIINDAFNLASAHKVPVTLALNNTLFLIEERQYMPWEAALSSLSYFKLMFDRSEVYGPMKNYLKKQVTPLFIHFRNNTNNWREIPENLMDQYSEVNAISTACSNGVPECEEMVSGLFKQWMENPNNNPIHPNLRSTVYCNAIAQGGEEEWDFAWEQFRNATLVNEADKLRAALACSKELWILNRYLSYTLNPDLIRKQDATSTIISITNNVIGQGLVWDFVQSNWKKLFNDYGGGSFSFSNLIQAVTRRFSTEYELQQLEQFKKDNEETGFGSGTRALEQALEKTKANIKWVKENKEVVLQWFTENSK

Consider `NC(Cc1ccc(F)cc1)P(=O)(O)O` (racemic) [1d, 1-Amino-2-(4-fluorophenyl)ethylphosphonic Acid], for which the Ki was found to be 4.86 ± 1.18 µM in assay [1] and 41.4 ± 2.5 µM in assay [2].
In the case of `NC(Cc1cccc(C(F)(F)F)c1)P(=O)(O)O` (racemic) [1w, 1-Amino-2-(3-trifluoromethylphenyl)ethylphosphonic Acid], the figures for the Ki in assay [1] (read-out: hAPN Ki) and in assay [2] were 2.53 ± 0.4 µM and 66 ± 7.3 µM, respectively.
For `NC(CC(F)(F)F)P(=O)(O)O` (racemic) [compound 8, (1-Amino-3,3,3-trifluoropropyl)phosphonic acid], the Ki in assay [1] was 84.7 ± 15.8 µM; in assay [2] it was 755 ± 230 µM.
With `Cc1cc(=O)oc2cc(NC(=O)[C@H](C)N)ccc12` [Ala-AMC, L-alanine-4-methylcoumaryl-7-amide], the Km in assay [3] amounted to 73 µM; in assay [4] it was 90 µM.
Regarding `NC(Cc1ccc(C(F)(F)F)cc1)P(=O)(O)O` (racemic) [1x, 1-Amino-2-(4-trifluoromethylphenyl)ethylphosphonic Acid], the Ki in assay [1] (read-out: hAPN Ki) is 24.9 ± 3 µM; in assay [2], 257 ± 27 µM.
With `NC(Cc1ccccc1)P(=O)(O)O` (stereo not drawn) [1a, 1-Amino-2-phenylethylphosphonic Acid], the Ki was 15.5 ± 1.7 µM in assay [1] (racemate (hydrochloride), 50 µM Ala-AMC, 50 mM Tris-HCl pH 7.00, 37 °C, 0.66 nM enzyme, 30 min enzyme preincubation in buffer, read-out: hAPN Ki) and 73.3 ± 7.6 µM in assay [2] (setting [5]).
Consider `NC(Cc1ccc(F)c(Cl)c1)P(=O)(O)O` (racemic) [1t, 1-Amino-2-(3-chloro-4-fluorophenyl)ethylphosphonic Acid], for which the Ki in assay [1] (read-out: hAPN Ki) was 0.542 ± 0.152 µM; in assay [2] it was 6.93 ± 0.78 µM.
With `NC(Cc1cc(F)ccc1C(F)(F)F)P(=O)(O)O` (racemic) [1y, 1-Amino-2-(5-fluoro-2-trifluoromethylphenyl)ethylphosphonic Acid], in assay [1] (setting [6]), the Ki was over 1000 µM. Further, in assay [2] (setting [5]), the “Inactive (no inhibition up to 1 mM)” value is given as over 1 mM.
Regarding `NC(Cc1cc(F)c(F)c(F)c1)P(=O)(O)O` (racemic) [1l, 1-Amino-2-(3,4,5-trifluorophenyl)ethylphosphonic Acid], the Ki was found to be 0.793 ± 0.138 µM in assay [1] (read-out: hAPN Ki) and 7.1 ± 0.93 µM in assay [2].
In the case of `NC(Cc1c(F)cccc1Cl)P(=O)(O)O` (racemic) [1r, 1-Amino-2-(2-chloro-6-fluorophenyl)ethylphosphonic Acid], the Ki in assay [1] (read-out: hAPN Ki) amounted to 360 ± 125 µM. In addition, the “pAPN Ki (μM)” value in assay [2] (setting [7]) is listed as 2557 ± 729 µM.
On to `NC(Cc1c(F)cccc1F)P(=O)(O)O` (racemic) [1g, 1-Amino-2-(2,6-difluorophenyl)ethylphosphonic Acid], for which the Ki in assay [1] (read-out: hAPN Ki) was determined as 327 ± 98 µM; in assay [2], 725 ± 121 µM.
On to `NC(Cc1ccccc1C(F)(F)F)P(=O)(O)O` (racemic) [1v, 1-Amino-2-(2-trifluoromethylphenyl)ethylphosphonic Acid], for which the Ki in assay [1] (setting [6]) was over 1000 µM. Besides, in assay [2] (setting [7]), the “pAPN Ki (μM)” value was determined as 2335 ± 617 µM.
For `NC(Cc1ccc(F)cc1Cl)P(=O)(O)O` (racemic) [1u, 1-Amino-2-(2-chloro-4-fluorophenyl)ethylphosphonic Acid], the Ki in assay [1] (read-out: hAPN Ki) was found to be 29.1 ± 10.3 µM; in assay [2], 106 ± 12 µM.
In the same order, the values of `NC(Cc1cc(F)c(F)cc1F)P(=O)(O)O` (racemic) [1j, 1-Amino-2-(2,4,5-trifluorophenyl)ethylphosphonic Acid] are 15 ± 2.2 µM and 78.5 ± 3.9 µM.
Take `NC(Cc1ccc(Cl)c(F)c1)P(=O)(O)O` (racemic) [1s, 1-Amino-2-(4-chloro-3-fluorophenyl)ethylphosphonic Acid]: the Ki in assay [1] (read-out: hAPN Ki) is 1.01 ± 0.16 µM; in assay [2] it was 14.8 ± 0.9 µM.
In the case of `NC(Cc1cc(F)cc(F)c1)P(=O)(O)O` (racemic) [1i, 1-Amino-2-(3,5-difluorophenyl)ethylphosphonic Acid], the figures for the Ki in assay [1] (read-out: hAPN Ki) and in assay [2] were 0.529 ± 0.088 µM and 8.09 ± 1.1 µM, respectively.
For `NC(Cc1cc(Cl)ccc1F)P(=O)(O)O` (racemic) [1p, 1-Amino-2-(5-chloro-2-fluorophenyl)ethylphosphonic Acid], in that order: 4.3 ± 0.44 µM and 47.2 ± 1.4 µM.
On to `NC(Cc1c(F)cc(F)cc1F)P(=O)(O)O` (racemic) [1k, 1-Amino-2-(2,4,6-trifluorophenyl)ethylphosphonic Acid], for which the Ki in assay [1] (read-out: hAPN Ki) came out at 225 ± 47 µM; in assay [2], 969 ± 158 µM.
For `NC(Cc1ccc(Cl)cc1F)P(=O)(O)O` (racemic) [1o, 1-Amino-2-(4-chloro-2-fluorophenyl)ethylphosphonic Acid], in that order: 17.8 ± 2.09 µM and 160 ± 11 µM.
In the case of `NC(Cc1c(F)c(F)c(F)c(F)c1F)P(=O)(O)O` (racemic) [1m, 1-Amino-2-(2,3,4,5,6-pentafluorophenyl)ethylphosphonic Acid], the values for the Ki in assay [1] (read-out: hAPN Ki) and in assay [2] were 139 ± 71 µM and 808 ± 132 µM, respectively.
For the compound `NC(Cc1ccccc1F)P(=O)(O)O` (racemic) [1b, 1-Amino-2-(2-fluorophenyl)ethylphosphonic Acid], the Ki amounted to 18.1 ± 3.7 µM in assay [1] and 256 ± 19 µM in assay [2].
Take `NC(Cc1ccc(F)c(F)c1)P(=O)(O)O` (racemic) [1h, 1-Amino-2-(3,4-difluorophenyl)ethylphosphonic Acid]: the Ki turned out to be 1.71 ± 0.52 µM in assay [1] (read-out: hAPN Ki) and 15.7 ± 2.5 µM in assay [2].
For `NC(Cc1cc(F)ccc1F)P(=O)(O)O` (racemic) [1f, 1-Amino-2-(2,5-difluorophenyl)ethylphosphonic Acid], the Ki is 25.9 ± 5 µM in assay [1] (read-out: hAPN Ki) and 86.3 ± 8.2 µM in assay [2].
Consider `NC(Cc1cccc(F)c1)P(=O)(O)O` (racemic) [1c, 1-Amino-2-(3-fluorophenyl)ethylphosphonic Acid], for which the Ki in assay [1] stood at 3.39 ± 0.71 µM; in assay [2], 26.4 ± 2 µM.
For `NC(Cc1ccc(F)c(C(F)(F)F)c1)P(=O)(O)O` (racemic) [1z, 1-Amino-2-(4-fluoro-3-trifluoromethylphenyl)ethylphosphonic Acid], the Ki in assay [1] (read-out: hAPN Ki) was found to be 3.55 ± 0.43 µM; in assay [2], 67.7 ± 5.6 µM.
Regarding `NC(Cc1ccc(F)cc1F)P(=O)(O)O` (racemic) [1e, 1-Amino-2-(2,4-difluorophenyl)ethylphosphonic Acid], the Ki in assay [1] (read-out: hAPN Ki) is 13.5 ± 2.7 µM; in assay [2], 95.6 ± 9.6 µM.
As to `NC(Cc1cccc(Cl)c1F)P(=O)(O)O` (racemic) [1n, 1-Amino-2-(3-chloro-2-fluorophenyl)ethylphosphonic Acid], the Ki in assay [1] (read-out: hAPN Ki) came out at 18.5 ± 7.1 µM; in assay [2], 85.1 ± 9.1 µM.

For orientation: Km means the substrate concentration at which the rate is half of its maximum.

The record behind these values is PMC7226027, “Phosphonic Acid Analogs of Fluorophenylalanines as Inhibitors of Human and Porcine Aminopeptidases N: Validation of the Importance of the Substitution of the Aromatic Ring” (Biomolecules, 2020).
